Here are results for 46 compounds from US20220064141A1, “BENZOPYRIDONE HETEROCYCLIC COMPOUND AND USE THEREOF” (BrightGene Bio-Medical Technology Co., Ltd., priority 2019, published 2022).

The term IC50 denotes the concentration needed to halve the response being measured. A lower IC50 goes with greater potency in that assay.

In one test the test system is NCI-H358 human non-small cell lung cancer cell with KRAS G12C mutation. In words: Cell Titer-Glo cell viability, NCI-H358 cells (72 h). Format: cell-based. The following applies: Homo sapiens, NCI-H358, 72 h, class symbols. The source says:
Effect Example 1: Pharmacodynamic Assay 1 (Determination of the efficacy of the compounds of the present disclosure on NCI-H358 human non-small cell lung cancer cell with KRAS G12C mutation)
The following method was used to determine the effect of the compounds of the present disclosure on tumor cell proliferation.
For the KRAS G12C subtype, NCI-H358 non-small cell lung cancer cells with KRAS G12C mutation were used to determine the efficacy of the compounds in inhibiting cancer cell viability. NCI-H358 cells were cultured in a DMEM medium containing 10% fetal bovine serum, 100 U penicillin and […] streptomycin. The cells were cultured in an incubator with 5% CO2 at 37° C. Cancer cell viability was evaluated by determining the content of ATP with Cell Titer-Glo® kit (Luminescent Cell Viability Assay kit, please refer to the manufacturer's instructions for use) and evaluating the inhibition of cell growth.
The experimental method was proceeded in accordance with the steps in the instructions for the kit, and was described briefly as follows. The test compounds were first dissolved in DMSO to prepare stock solutions, and then the stock solutions were subjected to gradient dilution with the culture media of the corresponding cells, thereby preparing test samples. The final concentrations of the compounds were in the range of 30 μM to 0.01 nM. Tumor cells in logarithmic growth phase were seeded into a 96-well cell culture plate at an appropriate density. After the cell culture plate was left overnight in an incubator with 5% CO2 at 37° C., the test compound samples were added thereto and then the cells were further cultured for 72 hours. After the incubation was complete, an appropriate volume of Cell Titer-Glo® reagent was added into each well, and the cells were incubated at 37° C. for 1 to 4 hours. Then, the […] was read on a microplate reader.
Take `C=CC(=O)N1CCN(c2c(C#N)c(=O)n(-c3ccccc3Cl)c3cc(-c4c(OC)ccc(Cl)c4F)c(Cl)cc23)[C@@H](C)C1` [Compound I-85-1]: the IC50 lay in the range of 100 to 1000 nM. `C=CC(=O)N1CCN(c2c(C#N)c(=O)n(-c3ccccc3C(C)C)c3cc(-c4c(C)cccc4C)c(Cl)cc23)[C@@H](C)C1` [Compound I-48]: the IC50 fell in the range of 100 to 1000 nM. Regarding `C=CC(=O)N1CCN(c2c(C#N)c(=O)n(-c3ccccc3C(C)C)c3cc(-c4ccc(F)cc4CO)c(Cl)cc23)[C@@H](C)C1` [Compound I-63], the IC50 lay in the range of 100 to 1000 nM. The compound `C=CC(=O)N1CCN(c2c(C#N)c(=O)n(-c3ccccc3C(C)C)c3cc(-c4cc(C)c(=O)n(C)c4)c(Cl)cc23)[C@@H](C)C1` [Compound I-16] had a 50% inhibitory concentration (IC50) of 100 to 1000 nM.

With `C=CC(=O)N1CCN(c2c(C#N)c(=O)n(-c3c(C)ccnc3C(C)C)c3cc(-c4c(C)ccc5[nH]ncc45)c(Cl)cc23)[C@@H](C)C1` [Compound I-83-1], the IC50 was < 100 nM.

Turning to `C=CC(=O)N1CCN(c2c(C#N)c(=O)n(-c3ccccc3C(C)C)c3cc(-c4cnn(CCO)c4)c(Cl)cc23)[C@@H](C)C1` [Compound I-58], the IC50 lay within 100 to 1000 nM. For `C=CC(=O)N1CCN(c2c(C#N)c(=O)n(-c3ccccc3C(C)C)c3cc(-c4ccccc4Cl)c(Cl)cc23)[C@@H](C)C1` [Compound I-18], the IC50 was 100 to 1000 nM. Compound `C=CC(=O)N1CCN(c2c(C#N)c(=O)n(-c3ccccc3C(C)C)c3cc(-c4cccc5ccoc45)c(Cl)cc23)[C@@H](C)C1` [Compound I-55] returned an IC50 of 100 to 1000 nM. Consider `C=CC(=O)N1CCN(c2c(C#N)c(=O)n(-c3ccccc3C(C)C)c3cc(-c4ccc(Cl)cc4)c(Cl)cc23)[C@@H](C)C1` [Compound I-11], for which the IC50 is > 1000 nM.

For the compound `C=CC(=O)N1CCN(c2c(C#N)c(=O)n(-c3ccccc3C(C)C)c3cc(-c4ccccc4C(N)=O)c(Cl)cc23)[C@@H](C)C1` [Compound I-12], the IC50 lay within 100 to 1000 nM. On to `C=CC(=O)N1CCN(c2c(C#N)c(=O)n(-c3ccccc3C(C)C)c3cc(-c4ccc(F)cc4)c(Cl)cc23)[C@@H](C)C1` [Compound I-15], for which the IC50 lay within 100 to 1000 nM. Consider `C=CC(=O)N1CCN(c2c(C#N)c(=O)n(-c3c(C(C)C)ncnc3C(C)C)c3cc(-c4c(OC)ccc(Cl)c4F)c(Cl)cc23)[C@@H](C)C1` [Compound I-87-1], for which the IC50 is < 100 nM. `C=CC(=O)N1CCN(c2c(C#N)c(=O)n(-c3ccccc3C(C)C)c3cc(-c4cc(F)ccc4N)c(Cl)cc23)[C@@H](C)C1` [Compound I-69]: the IC50 is < 100 nM.

Regarding `C=CC(=O)N1CCN(c2c(C#N)c(=O)n(-c3ccccc3C(C)C)c3cc(-c4ccccc4F)c(Cl)cc23)[C@@H](C)C1` [Compound I-10], the 50% inhibitory concentration (IC50) was > 1000 nM. The compound `C=CC(=O)N1CCN(c2c(C#N)c(=O)n(-c3ccccc3C(C)C)c3cc(-c4ccn(C)c(=O)c4)c(Cl)cc23)[C@@H](C)C1` [Compound I-68] registered an IC50 of 100 to 1000 nM. On to `C=CC(=O)N1CCN(c2c(C#N)c(=O)n(-c3ccccc3C(C)C)c3cc(-c4c(OC)ccc5ccccc45)c(Cl)cc23)[C@@H](C)C1` [Compound I-31], for which the IC50 is < 100 nM. On the same count and under the same terms, with `C=CC(=O)N1CCN(c2c(C#N)c(=O)n(-c3ccccc3C(C)C)c3cc(-c4c(N)cccc4F)c(Cl)cc23)[C@@H](C)C1` [Compound I-9] the figure was 100 to 1000 nM; with `C=CC(=O)N1CCN(c2c(C#N)c(=O)n(-c3ccccc3C(C)C)c3cc(-c4cc(C)ccc4O)c(Cl)cc23)[C@@H](C)C1` [Compound I-66], < 100 nM. On to `C=CC(=O)N1CCN(c2c(C#N)c(=O)n(-c3ccccc3C(C)C)c3cc(-c4cnc(OC)cc4C)c(Cl)cc23)[C@@H](C)C1` [Compound I-30], for which the IC50 is > 1000 nM. `C=CC(=O)N1CCN(c2c(C#N)c(=O)n(-c3ccccc3C(C)C)c3cc(-c4cccc(N)n4)c(Cl)cc23)[C@@H](C)C1` [Compound I-41] displayed an IC50 of 100 to 1000 nM. Regarding `C=CC(=O)N1CCN(c2c(C#N)c(=O)n(-c3ccccc3C(C)C)c3cc(-c4ccc(C#N)cc4N)c(Cl)cc23)[C@@H](C)C1` [Compound I-60], the IC50 lay within 100 to 1000 nM. As for `C=CC(=O)N1CCN(c2c(C#N)c(=O)n(-c3ccccc3C(C)C)c3cc(-c4cncc(N)c4)c(Cl)cc23)[C@@H](C)C1` [Compound I-59], the IC50 is > 1000 nM.

Consider `C=CC(=O)N1CCN(c2c(C#N)c(=O)n(-c3ccccc3C(C)C)c3cc(-c4ccc5[nH]ncc5c4)c(Cl)cc23)[C@@H](C)C1` [Compound I-74], for which the IC50 was > 1000 nM. Consider `C=CC(=O)N1CCN(c2c(C#N)c(=O)n(-c3ccccc3C(C)C)c3cc(-c4c(N)ccc(Cl)c4F)c(Cl)cc23)[C@@H](C)C1` [Compound I-35], for which the IC50 was < 100 nM. As to `C=CC(=O)N1CCN(c2c(C#N)c(=O)n(-c3ccccc3C(C)C)c3cc(-c4cc(F)ccc4O)c(Cl)cc23)[C@@H](C)C1` [Compound I-70], the IC50 was < 100 nM. `C=CC(=O)N1CCN(c2c(C#N)c(=O)n(-c3ccccc3C(C)C)c3cc(-c4cc(Cl)ccc4N)c(Cl)cc23)[C@@H](C)C1` [Compound I-43]: the half-maximal inhibitory concentration (IC50) was < 100 nM. Compound `C=CC(=O)N1CCN(c2c(C#N)c(=O)n(-c3ccccc3C(C)C)c3cc(-c4ccc(N)nc4C)c(Cl)cc23)[C@@H](C)C1` [Compound I-56] gave an IC50 of 100 to 1000 nM. The compound `C=CC(=O)N1CCN(c2c(C#N)c(=O)n(-c3ccccc3C(C)C)c3cc(-c4cccc5c4oc4ccccc45)c(Cl)cc23)[C@@H](C)C1` [Compound I-20] yielded a 50% inhibitory concentration (IC50) of 100 to 1000 nM. `C=CC(=O)N1CCN(c2c(C#N)c(=O)n(-c3ccccc3C(C)C)c3cc(-c4cc(C#N)ccc4C)c(Cl)cc23)[C@@H](C)C1` [Compound I-49] returned an IC50 of 100 to 1000 nM.

As for `C=CC(=O)N1CCN(c2c(C#N)c(=O)n(-c3ccccc3C(C)C)c3cc(-c4cc(C(F)(F)F)cc(Cl)c4N)c(Cl)cc23)[C@@H](C)C1` [Compound I-79], the IC50 was < 100 nM. Same read-out and setting: with `C=CC(=O)N1CCN(c2c(C#N)c(=O)n(-c3ccccc3C(C)C)c3cc(-c4coc5ccccc45)c(Cl)cc23)[C@@H](C)C1` [Compound I-51] the figure was 100 to 1000 nM.

For `C=CC(=O)N1CCN(c2c(C#N)c(=O)n(-c3ccccc3C(C)C)c3cc(-c4cccc(C(C)=O)c4)c(Cl)cc23)[C@@H](C)C1` [Compound I-44], the IC50 lay within 100 to 1000 nM.

`C=CC(=O)N1CCN(c2c(C#N)c(=O)n(-c3ccccc3C(C)C)c3cc(-c4cnc(C5CC5)nc4)c(Cl)cc23)[C@@H](C)C1` [Compound I-27] showed an IC50 of 100 to 1000 nM. In turn, `C=CC(=O)N1CCN(c2c(C#N)c(=O)n(-c3ccccc3C(C)C)c3cc(-c4ccc5c(c4)CC5)c(Cl)cc23)[C@@H](C)C1` [Compound I-47] registered an IC50 of 100 to 1000 nM. In turn, `C=CC(=O)N1CCN(c2c(C#N)c(=O)n(-c3ccccc3C(C)C)c3cc(-c4cc(O)ccc4F)c(Cl)cc23)[C@@H](C)C1` [Compound I-73] returned an IC50 of 100 to 1000 nM.

Take `C=CC(=O)N1CCN(c2c(C#N)c(=O)n(-c3ccccc3C(C)C)c3cc(-c4cccc(Cl)c4)c(Cl)cc23)[C@@H](C)C1` [Compound I-17]: the IC50 was > 1000 nM. For the compound `C=CC(=O)N1CCN(c2c(C#N)c(=O)n(-c3ccccc3C(C)C)c3cc(-c4c(C)noc4C)c(Cl)cc23)[C@@H](C)C1` [Compound I-34], the IC50 is > 1000 nM.

The same test, now with this note: class symbols.
Take `C=CC(=O)N1C[C@H](C)N(c2c(C#N)c(=O)n(-c3ccccc3C(C)C)c3cc(-c4c(C)ccc5[nH]ncc45)c(Cl)cc23)C[C@H]1C` (single isomer, unassigned) [Compound I-4-1]: the IC50 was > 1000 nM. With `C=C(F)C(=O)N1CCN(c2c(C#N)c(=O)n(-c3ccccc3C(C)C)c3cc(-c4c(C)ccc5[nH]ncc45)c(Cl)cc23)[C@@H](C)C1` (single isomer, unassigned) [Compound I-6-1], the IC50 was > 1000 nM. `C=C(F)C(=O)N1CCN(c2c(C#N)c(=O)n(-c3ccccc3C(C)C)c3cc(-c4c(C)ccc5[nH]ncc45)c(Cl)cc23)[C@@H](C)C1` (single isomer, unassigned) [Compound I-6-2]: the IC50 is < 100 nM. In the case of `C=CC(=O)N1CCN(c2c(C#N)c(=O)n(-c3ccccc3C(C)C)c3cc(-c4cc(Cl)ccc4N)c(Cl)cc23)[C@@H](C)C1` [Compound I-82], the concentration for half-maximal inhibition (IC50) is < 100 nM.

`C=CC(=O)N1CCN(c2c(C#N)c(=O)n(-c3ccccc3C(C)C)c3cc(-c4ccc(F)cc4O)c(Cl)cc23)[C@@H](C)C1` [Compound I-72]: the IC50 was < 100 nM. In turn, `C=CC(=O)N1CCN(c2c(C#N)c(=O)n(-c3ccccc3Cl)c3cc(-c4c(OC)ccc(Cl)c4F)c(Cl)cc23)[C@@H](C)C1` [Compound I-85-2] gave an IC50 of 100 to 1000 nM. For the compound `C=CC(=O)N1CCN(c2c(C#N)c(=O)n(-c3ccccc3C(C)C)c3cc(-c4c(OC)ccc(Cl)c4F)c(Cl)cc23)[C@@H](C)C1` (single isomer, unassigned) [Compound I-7-1], the concentration for half-maximal inhibition (IC50) is > 1000 nM. The same measure, in the same setting: the value for `C=CC(=O)N1CCN(c2c(C#N)c(=O)n(-c3c(C)ccnc3C(C)C)c3cc(-c4c(OC)ccc(Cl)c4F)c(Cl)cc23)[C@@H](C)C1` [Compound I-84-2] was 100 to 1000 nM; that for `C=CC(=O)N1CC2(CCN(c3c(C#N)c(=O)n(-c4ccccc4C(C)C)c4cc(-c5c(C)ccc6[nH]ncc56)c(Cl)cc34)CC2)C1` (single isomer, unassigned) [Compound I-5-2] was 100 to 1000 nM.
